Experimental data: publication PMC7221826, “5-Oxo-hexahydroquinoline Derivatives and Their Tetrahydroquinoline Counterparts as Multidrug Resistance Reversal Agents” (Molecules, 2020)
“Also recorded” adds a separate entry of the source. Where two headings read alike, the source gives them in different places.

How the values were obtained:
[1] = tested on: MES-SA-DX5 cells; assay: Cell cycle analysis by propidium iodide (PI)-RNase flow cytometry; type: cell-based, human; set-up: Sub G1: unit not given here; details: 24 h
Method: The analysis of cells in different phases of cell cycle and sub-G1 was performed using propidium iodide (PI)-RNase assay by flow cytometry. MES-SA-DX5 cells were seeded in 12-well plates (1 × 10^6 cells/well) and treated with different concentrations of synthesized compounds for 24 h. The cells were then collected, washed with PBS, and fixed with 70% ethanol overnight at –20 °C. After at least 24 h, fixed cells were washed with PBS and subsequently stained with a DNA staining solution containing PI 20 μg/mL and RNase 200 μg/mL at room temperature for 30 min in the dark. Twenty thousand cells of each sample were analyzed using a BD FACSCalibur flow cytometer (BD Biosciences, USA) and the amount of the cells in sub-G1, G0/G1, S, and G2/M phases were estimated using CellQuest (Becton Dickinson, San Jose, CA, USA) software.
Therefore, it could be concluded that these compounds cause cytotoxicity in drug resistant MES-SA-DX5 cells by induction of apoptosis in these cells.
Figure 3 Effect of synthesized derivatives on cell cycle alterations in MES-SA-DX5 drug resistant cells. The cells in different phases of cell cycle were monitored using propidium iodide (PI)-RNase assay by flow cytometry. MES-SA-DX5 cells were seeded in 12-well plates (1 × 10^6 cells/well) and treated with different concentrations of synthesized compounds for 24 h. The cells were then collected, washed with PBS and fixed with 70% ethanol overnight at –20 °C. After at least 24 h, fixed cells were washed with PBS and subsequently stained with a DNA staining solution containing PI 20 μg/mL and RNase 200 μg/mL at room temperature for 30 min in the dark. Twenty thousand cells of each sample were analyzed using a FACS Calibur flow cytometer (BD Biosciences, USA). Representative histograms of cells treated with synthesized compounds are shown. An increase in sub-G1 phase cells could be observed after treatment with A1, A2, B1, and B2 compounds.

[2] = tested on: HEK-293; assay: MTT cell viability assay, HEK-293; type: cell-based, human; details: non-cancerous, read-out: IC50 (µM) in Cultured Cells HEK-293
Description: (§1) Cell lines used for cytotoxicity assays included MCF-7 (human breast adenocarcinoma), A549 (human lung adenocarcinoma), K562 (human chronic myelogenous leukemia) and HEK-293 (human embryonic kidney) cells and were obtained from the Iranian Biological Resource Center, Tehran, Iran. MES-SA-DX5 multidrug resistant human uterine sarcoma, over-expressing P-gp and their parental non-resistant MES-SA cell lines were purchased from Sigma-Aldrich (St. Louis, MO, USA). All cells, except for HEK-293, were cultured in RPMI 1640 supplemented with 10% FBS and 100 units/mL penicillin-streptomycin at 37 °C in humidified air containing 5% CO2. HEK-293 cells were maintained in DMEM-F12 medium containing L-glutamine 2 mM supplemented with FBS and penicillin-streptomycin. MES-SA-DX5 cells were maintained in media containing 100 nM doxorubicin in order to ensure that only drug-resistant cells continue to grow.
(§2) Cytotoxicity of the test compounds were evaluated by MTT assay. In this method, reduction of MTT, a yellow tetrazolium salt to the purple formazan, by cellular dehydrogenase enzymes is determined as an index of cell viability. Cancer cells were seeded into 96-well plates (3–5 × 10^3 cells/well) and incubated for 24 h at 37 °C. Afterwards, four different concentrations of synthesized derivatives were added in triplicate and the cells were incubated at 37 °C for another 72 h, after which the media was replaced with MTT solution at a concentration of 0.5 mg/mL was added for MTT assay. After another 4h, formazan crystals were dissolved in 200 μL DMSO for 90 min and absorbance was measured at a wavelength of 570 nm with background correction at 650 nm using a microplate reader (model 680, Bio-Rad, Hercules, CA, USA) and IC50 for each compound was calculated with CurveExpert version 1.34 for Windows.

[3] = tested on: MES-SA; assay: MTT cell viability assay, MES-SA; type: cell-based, human; details: MTT; for IC50: Homo sapiens, MES-SA, 72 h, parental non-resistant, read-out: IC50 (µM) in Cultured Cells MES-SA
Description: as §1, §2

[4] = tested on: MES-SA-DX5; assay: MTT cell viability assay, MES-SA-DX5; type: cell-based, human; details: Homo sapiens, MES-SA/Dx5, 72 h, multidrug resistant, P-gp overexpressing, read-out: IC50 (µM) in Cultured Cells MES-SA-DX5
Description: as §1, §2

[5] = tested on: K562; assay: MTT cell viability assay, K562; type: cell-based, human; details: Homo sapiens, K562, 72 h, read-out: IC50 (µM) in Cultured Cells K562
Description: as §1, §2

[6] = tested on: MCF-7; assay: MTT cell viability assay, MCF-7; type: cell-based, human; details: Homo sapiens, MCF7, 72 h, read-out: IC50 (µM) in Cultured Cells MCF-7
Description: as §1, §2

[7] = tested on: A-549; assay: MTT cell viability assay, A-549; type: cell-based, human; details: Homo sapiens, A549, 72 h, read-out: IC50 (µM) in Cultured Cells A-549
Description: as §1, §2

[8] = target: T1, P-gp (Homo sapiens, UniProt P08183); assay: MDR reversal assay: flow cytometric detection of Rhodamine123 efflux/accumulation in MES-SA-DX5 cells; type: cell-based; details: compounds at 5, 10 and 25 µM, 5 µM Rh123
T1 construct: MES-SA-DX5 is a resistant cell line, which overexpresses P-gp as a result of constant exposure to doxorubicin; host or cells: MES-SA-DX5 human uterine sarcoma cells
T1 sequence (P08183 whole entry): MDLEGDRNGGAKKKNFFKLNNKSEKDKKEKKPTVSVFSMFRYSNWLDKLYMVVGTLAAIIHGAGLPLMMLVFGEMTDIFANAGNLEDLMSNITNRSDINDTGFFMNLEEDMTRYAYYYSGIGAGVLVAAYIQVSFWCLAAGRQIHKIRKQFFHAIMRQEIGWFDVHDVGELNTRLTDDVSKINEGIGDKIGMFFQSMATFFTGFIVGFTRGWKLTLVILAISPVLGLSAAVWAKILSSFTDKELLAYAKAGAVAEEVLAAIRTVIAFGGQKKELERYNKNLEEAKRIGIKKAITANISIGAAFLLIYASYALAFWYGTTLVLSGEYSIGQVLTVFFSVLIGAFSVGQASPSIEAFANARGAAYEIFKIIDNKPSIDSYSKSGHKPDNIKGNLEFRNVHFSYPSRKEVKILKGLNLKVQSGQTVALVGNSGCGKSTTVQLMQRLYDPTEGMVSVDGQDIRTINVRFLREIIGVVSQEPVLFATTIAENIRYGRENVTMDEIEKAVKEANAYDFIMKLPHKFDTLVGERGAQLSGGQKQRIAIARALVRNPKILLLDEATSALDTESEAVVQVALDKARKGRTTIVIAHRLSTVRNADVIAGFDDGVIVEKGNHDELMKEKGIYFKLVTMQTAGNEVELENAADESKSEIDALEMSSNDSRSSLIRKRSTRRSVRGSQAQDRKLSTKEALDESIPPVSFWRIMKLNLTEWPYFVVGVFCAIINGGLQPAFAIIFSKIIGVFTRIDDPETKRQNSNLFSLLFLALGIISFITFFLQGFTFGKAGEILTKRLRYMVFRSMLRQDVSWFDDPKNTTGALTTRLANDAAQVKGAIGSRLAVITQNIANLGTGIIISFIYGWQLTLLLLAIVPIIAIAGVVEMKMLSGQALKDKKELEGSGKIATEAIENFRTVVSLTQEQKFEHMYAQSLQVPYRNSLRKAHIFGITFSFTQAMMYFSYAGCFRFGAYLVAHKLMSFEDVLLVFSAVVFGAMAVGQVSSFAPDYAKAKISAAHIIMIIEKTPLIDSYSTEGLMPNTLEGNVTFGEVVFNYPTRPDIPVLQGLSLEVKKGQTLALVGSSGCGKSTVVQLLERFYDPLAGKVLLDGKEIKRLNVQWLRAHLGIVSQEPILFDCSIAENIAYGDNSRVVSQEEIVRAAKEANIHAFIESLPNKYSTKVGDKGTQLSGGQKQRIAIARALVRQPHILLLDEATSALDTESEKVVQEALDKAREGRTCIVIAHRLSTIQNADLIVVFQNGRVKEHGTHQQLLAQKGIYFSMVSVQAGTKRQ
Method: Rhodamine 123 (Rh123) is a well-known substrate of P-gp and it is readily pumped out of the cells by this ABC transporter. The amount of retained Rh123 in the cells indicates the efflux function of the target transporter. Flow cytometric analysis was used for assessment of intracellular Rh123 as previously described.
Briefly, a suspension of the multidrug resistant uterine sarcoma MES-SA-DX5 cells at a density of 5 × 10^5 cells/mL in growth medium was prepared. Four-hundred microliters (400 µL) of the synthesized compounds with final concentration of 5, 10, and 25 µM were added to 500 µL of the cell suspension. Verapamil was also tested as a positive control. After an incubation of 20 min, 50 µL of Rh123 at a final concentration of 5 µM was added and incubated for further 30 min at 37 °C. The cells were then centrifuged and washed twice with ice-cold PBS, and then resuspended in PBS and kept on ice. Rh123 accumulated in cells was then quantified by a FACSCalibur flow cytometer (Becton Dickinson, San Jose, CA, USA) with excitation and emission wavelengths of 488 and 530 nm, respectively. Geometric means of fluorescence intensity values were determined using Flowing Software (http://flowingsoftware.btk.fi/).
Accumulation of Rhodamine123 (Rh123), caused by inhibition of P-gp-mediated efflux, was determined by flow cytometry in the multidrug resistant uterine sarcoma MES-SA-DX5 cell line. Verapamil was used as a positive control. MES-SA-DX5 is a resistant cell line, which overexpresses P-gp as a result of constant exposure to doxorubicin. Alterations in the amount of the fluorescent Rh123 retained inside the MES-SA-DX5 cells can be plausibly related to the inhibition of the activity of P-gp efflux pump in the cells (Figure 1). The ratio of the geometric mean value of cells treated with synthesized compounds to the geometric mean value of the control untreated cells are show in Figure 2.
Figure 2 MDR reversal assessed by flow cytometric detection of Rhodamine123 efflux in MES-SA-DX5 cells. Cells were suspended in RPMI 1640 and treated with verapamil (Ver, positive control) or synthesized derivatives. After incubation for 20 min, 5 μM Rh123 was added, the cells were incubated for another […] at 37 °C and then centrifuged and washed twice with ice-cold PBS and resuspended in PBS. The fluorescence caused by the presence of Rh123 in cells was measured using a flow cytometer with excitation and emission wavelengths of 488 nm and 530 nm, respectively. The values represent the mean ± S.E.M. of 3–5 experiments. * The difference between treated and controlled cells are statistically significant (p ˂ 0.05).

Compound | G0/G1 ([1]; 10 µM) | G2/M ([1]; 10 µM) | S ([1]; 10 µM) | Sub G1 ([1]; 10 µM) | G0/G1 ([1]; 25 µM) | G2/M ([1]; 25 µM) | S ([1]; 25 µM) | Sub G1 ([1]; 25 µM) | G0/G1 ([1]; 100 µM) | G2/M ([1]; 100 µM) | S ([1]; 100 µM) | IC50 ([2]; Homo sapiens, HEK293, 72 h) [µM] | IC50 [3] [µM] | IC50 [4] [µM] | IC50 [5] [µM] | IC50 [6] [µM] | IC50 [7] [µM] | melting point [°C] | P-gp inhibitory activity (Rh123 accumulation) [8] | IC50 ([2]; 72 h) [µM] | also measured
Cc1nc(NC(=O)c2c(C)nc3c(c2-c2ccc(Br)cc2)C(=O)CCC3)cs1 [Compound B2, 4-(4-Bromophenyl)-2-methyl-N-(2-methylthiazol-4-yl)-5-oxo-5,6,7,8-tetrahydroquinoline-3-carboxamide] | 53.00 ± 3.6 | 24.13 ± 2.4 | 21.80 ± 1.5 | 0.96 ± 0.1 | 55.83 ± 2.6 | 22.23 ± 1.4 | 20.30 ± 1.7 | 1.57 ± 0.4 | 47.00 ± 0.6 | 29.27 ± 1.8 | 19.48 ± 1.8 | > 50 | > 100 | 43.6 ± 2.8 | 10.1 ± 1.5 | 77.7 ± 8.7 | 86.8 ± 5 | 261 | significantly blocked P-gp efflux; also recorded: highest P-gp inhibitory activities |  | effect against parental non-resistant MES-SA cells [3]: did not show any effect
CC1=C(C(=O)Nc2csc(C)n2)C(c2ccc(Cl)cc2)C2=C(CCCC2=O)N1 (stereo not drawn) [Compound A5, 4-(4-Chlorophenyl)-2-methyl-N-(2-methylthiazol-4-yl)-5-oxo-1,4,5,6,7,8-hexahydroquinoline-3-carboxamide] | 56.07 ± 0.3 | 24.20 ± 1.2 | 19.03 ± 0.9 | 0.65 ± 0.2 | 58.03 ± 0.7 | 22.33 ± 0.5 | 18.90 ± 0.9 | 0.70 ± 0.3 | 48.92 ± 1.4 | 29.32 ± 1.2 | 18.58 ± 0.6 | > 50 | 69.5 ± 12.5 | 40.3 ± 3 | 31.5 ± 3.3 | 72.9 ± 12.3 | 87.4 ± 1.5 | 253 |  | 71.1 ± 10.1 | 
Cc1nc(NC(=O)c2c(C)nc3c(c2-c2ccc(Cl)cc2Cl)C(=O)CCC3)cs1 [Compound B1, 4-(2,4-Dichlorophenyl)-2-methyl-N-(2-methylthiazol-4-yl)-5-oxo-5,6,7,8-tetrahydroquinoline-3-carboxamide] | 49.10 ± 3.7 | 29.03 ± 2.1 | 21.27 ± 2.1 | 0.64 ± 0.1 | 51.13 ± 2.4 | 27.03 ± 0.6 | 20.90 ± 2.0 | 0.91 ± 0.0 |  |  | 25.17 ± 0.7 | 39.9 ± 5.4 | 55.6 ± 2.4 | 39.8 ± 1.6 | 6.7 ± 0.6 | 47.1 ± 2.1 | 60 ± 3 | 248 | significantly blocked P-gp efflux |  | 
Cc1nc(NC(=O)c2c(C)nc3c(c2-c2ccc(Cl)cc2)C(=O)CCC3)cs1 [Compound B5, 4-(4-Chlorophenyl)-2-methyl-N-(2-methylthiazol-4-yl)-5-oxo-5,6,7,8-tetrahydroquinoline-3-carboxamide] | 53.87 ± 0.7 | 27.27 ± 2.6 | 18.13 ± 1.9 | 0.62 ± 0.1 | 55.43 ± 1.3 | 26.07 ± 2.7 | 17.73 ± 1.3 | 0.69 ± 0.1 | 57.58 ± 0.9 | 26.87 ± 0.9 | 13.62 ± 0.8 | > 50 | > 100 | 62.3 ± 5.5 | 10.4 ± 1.5 | 89.5 ± 3.5 | 91 ± 4.6 | 251 |  | 64.2 ± 1.1 | 
